Measured values published in ChEMBL document CHEMBL5705896 (ACS Chem Biol, 2013).
The source made the active and inactive calls. No cut-off for these calls is given here.

Key:
[1] = molecular target: CDK2/Cyclin A2 (Homo sapiens) (UniProt P24941+P20248); experiment: Inhibition of full length human N-terminal GST tagged CDK2 (1 to 298 residues)/GST tagged CycA2 (1 to 432 end residues) expressed in baculovirus expression system using histone H1 as substrate at 10 uM by mobility shift assay relative to control
[2] = molecular target: Death-associated protein kinase 1 (Homo sapiens) (UniProt P53355); experiment: Inhibition of human catalytic domain N-terminal GST tagged DAPK1 (1 to 289 residues) expressed in baculovirus expression system using DAPK1tide as substrate at 10 uM by mobility shift assay relative to control
[3] = molecular target: Serotonin 3 (5-HT3) receptor (Homo sapiens) (UniProt P46098+A5X5Y0+O95264+Q70Z44+Q8WXA8); experiment: Inhibition of 5-HT3 receptor (unknown origin) at 10 uM by radioligand binding assay relative to control; type: protein-complex assay
[4] = molecular target: Translocator protein (Homo sapiens) (UniProt P30536); experiment: Inhibition of PBR (unknown origin) at 10 uM by radioligand binding assay relative to control
Sequence of Translocator protein (Homo sapiens) (P30536 whole entry): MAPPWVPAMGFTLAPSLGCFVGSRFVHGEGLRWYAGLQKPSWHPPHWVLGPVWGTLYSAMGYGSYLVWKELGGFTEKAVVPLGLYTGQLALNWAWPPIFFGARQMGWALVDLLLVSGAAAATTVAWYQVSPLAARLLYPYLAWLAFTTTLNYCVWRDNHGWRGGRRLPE

[5] = molecular target: 5-hydroxytryptamine receptor 1A (Homo sapiens) (UniProt P08908); experiment: Inhibition of 5-HT1A receptor (unknown origin) at 10 uM by radioligand binding assay relative to control
Sequence of 5-hydroxytryptamine receptor 1A (Homo sapiens) (P08908 whole entry): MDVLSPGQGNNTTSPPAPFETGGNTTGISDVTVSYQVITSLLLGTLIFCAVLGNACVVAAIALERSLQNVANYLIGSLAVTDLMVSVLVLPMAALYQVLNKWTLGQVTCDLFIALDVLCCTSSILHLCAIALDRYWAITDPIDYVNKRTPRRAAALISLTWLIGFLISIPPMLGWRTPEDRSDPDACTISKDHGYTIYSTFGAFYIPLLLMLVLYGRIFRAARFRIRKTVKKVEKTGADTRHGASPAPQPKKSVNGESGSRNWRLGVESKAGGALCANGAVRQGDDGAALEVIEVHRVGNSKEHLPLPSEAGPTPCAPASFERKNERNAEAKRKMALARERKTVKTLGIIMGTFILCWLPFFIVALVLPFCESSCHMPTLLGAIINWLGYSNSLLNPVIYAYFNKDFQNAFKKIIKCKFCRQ

[6] = molecular target: DNA (cytosine-5)-methyltransferase 1 (Homo sapiens, UniProt P26358); experiment: Inhibition of DNMT1 (unknown origin) using hemimethylated dsDNA as substrate incubated for 1 hr by scintillation proximity assay
Sequence of DNA (cytosine-5)-methyltransferase 1 (P26358 whole entry): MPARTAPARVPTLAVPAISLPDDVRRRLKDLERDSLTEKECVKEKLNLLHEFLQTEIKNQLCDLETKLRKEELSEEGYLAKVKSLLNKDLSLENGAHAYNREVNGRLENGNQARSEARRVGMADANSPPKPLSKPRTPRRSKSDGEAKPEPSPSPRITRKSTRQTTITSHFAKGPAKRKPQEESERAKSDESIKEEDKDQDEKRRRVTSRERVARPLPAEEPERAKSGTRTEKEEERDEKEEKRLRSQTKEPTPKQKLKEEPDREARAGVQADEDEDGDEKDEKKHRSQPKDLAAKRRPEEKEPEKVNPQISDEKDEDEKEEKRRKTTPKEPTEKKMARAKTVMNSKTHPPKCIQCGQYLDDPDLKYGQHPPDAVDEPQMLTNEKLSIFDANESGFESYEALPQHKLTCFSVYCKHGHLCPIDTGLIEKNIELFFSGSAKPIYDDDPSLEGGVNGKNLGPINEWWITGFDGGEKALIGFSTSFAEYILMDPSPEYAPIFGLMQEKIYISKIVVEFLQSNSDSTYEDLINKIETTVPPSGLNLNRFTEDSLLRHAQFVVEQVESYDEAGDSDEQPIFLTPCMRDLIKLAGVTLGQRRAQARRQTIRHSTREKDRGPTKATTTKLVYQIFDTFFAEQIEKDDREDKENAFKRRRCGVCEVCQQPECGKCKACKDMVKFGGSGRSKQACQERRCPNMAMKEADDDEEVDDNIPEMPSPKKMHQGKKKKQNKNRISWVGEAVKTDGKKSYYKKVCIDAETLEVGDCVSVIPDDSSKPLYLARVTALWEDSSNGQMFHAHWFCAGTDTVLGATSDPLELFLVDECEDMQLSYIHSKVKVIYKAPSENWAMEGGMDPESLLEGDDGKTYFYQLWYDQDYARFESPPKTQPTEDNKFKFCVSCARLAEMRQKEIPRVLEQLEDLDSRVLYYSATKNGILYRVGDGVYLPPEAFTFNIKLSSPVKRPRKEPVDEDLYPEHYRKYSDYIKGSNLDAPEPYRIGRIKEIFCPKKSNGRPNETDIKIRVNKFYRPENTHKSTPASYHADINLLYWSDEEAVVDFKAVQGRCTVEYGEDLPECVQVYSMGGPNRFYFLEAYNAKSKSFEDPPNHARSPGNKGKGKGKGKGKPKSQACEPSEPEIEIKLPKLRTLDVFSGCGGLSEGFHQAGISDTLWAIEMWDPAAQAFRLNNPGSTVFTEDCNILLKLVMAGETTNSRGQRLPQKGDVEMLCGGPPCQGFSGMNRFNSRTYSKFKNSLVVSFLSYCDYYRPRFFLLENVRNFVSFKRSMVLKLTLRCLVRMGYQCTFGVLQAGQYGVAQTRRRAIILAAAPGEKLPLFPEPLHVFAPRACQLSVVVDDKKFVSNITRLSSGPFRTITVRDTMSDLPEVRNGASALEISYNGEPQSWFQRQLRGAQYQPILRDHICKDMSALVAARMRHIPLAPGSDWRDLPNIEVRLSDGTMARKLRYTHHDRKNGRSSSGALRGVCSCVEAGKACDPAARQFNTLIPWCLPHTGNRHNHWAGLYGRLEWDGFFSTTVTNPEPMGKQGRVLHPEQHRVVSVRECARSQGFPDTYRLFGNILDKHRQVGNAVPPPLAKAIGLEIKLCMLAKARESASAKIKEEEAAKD

[7] = Toxicity in Swiss albino mouse assessed as adverse effect at 15 to 150 mg/kg administered as single ip dose measured upto 24 hrs; type: organism-based; conditions: in vivo, dose 15-150 mg/kg
[8] = test system: DB; experiment: Antiproliferative activity against human DB cells assessed as reduction in cell viability at 3000 nM measured after 8 days by cell proliferation assay; type: functional, cell-based; conditions: time 8.0 day
[9] = molecular target: D(1A) dopamine receptor (Homo sapiens) (UniProt P21728); experiment: Inhibition of dopamine D1 receptor (unknown origin) at 10 uM by radioligand binding assay relative to control
[10] = molecular target: Serine/threonine-protein kinase D2 (Homo sapiens) (UniProt Q9BZL6); experiment: Inhibition of full length human N-terminal GST tagged PKD2 (1 to 878 end residues) expressed in baculovirus expression system using GS as peptide at 10 uM by mobility shift assay relative to control
[11] = molecular target: Tyrosine-protein kinase SYK (Homo sapiens) (UniProt P43405); experiment: Inhibition of full length human N-terminal GST tagged SYK (1 to […] end residues) expressed in baculovirus expression system using Blk/lyntide as substrate at 10 uM by mobility shift assay relative to control
[12] = Inhibition of full length human N-terminal his tagged ABL (2 to 1130 end residues) expressed in baculovirus expression system using ABLtide as substrate at 10 uM by mobility shift assay relative to control; conditions: condition weaver syndrome
[13] = molecular target: Protein kinase C alpha type (Homo sapiens) (UniProt P17252); experiment: Inhibition of full length human N-terminal GST tagged PKC alpha (1 to 672 end residues) expressed in baculovirus expression system using PKC as peptide at 10 uM by mobility shift assay relative to control
[14] = molecular target: Histone-lysine N-methyltransferase SETDB1 (Homo sapiens, UniProt Q15047); experiment: Inhibition of SETDB1 (unknown origin) using [3H-SAM] as substrate incubated for 1 hr by scintillation proximity assay
[15] = molecular target: Sigma intracellular receptor 2 (Homo sapiens, UniProt Q5BJF2); experiment: Binding affinity to sigma 2 receptor (unknown origin) assessed as inhibition constant
Sequence of Sigma intracellular receptor 2 (Q5BJF2 whole entry): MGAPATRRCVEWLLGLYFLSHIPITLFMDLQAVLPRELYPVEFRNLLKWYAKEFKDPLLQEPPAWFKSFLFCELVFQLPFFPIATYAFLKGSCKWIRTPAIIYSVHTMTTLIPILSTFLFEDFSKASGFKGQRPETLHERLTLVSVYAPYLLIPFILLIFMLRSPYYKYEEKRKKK

[16] = molecular target: Testis-specific serine/threonine-protein kinase 1 (Homo sapiens) (UniProt Q9BXA7); experiment: Inhibition of full length human N-terminal GST tagged TSSK1 (1 to 367 end residues) expressed in baculovirus expression system using GS as peptide at 10 uM by mobility shift assay relative to control
[17] = test system: DB; experiment: Antiproliferative activity against human DB cells assessed as reduction in cell viability at 5000 nM by cell proliferation assay relative to control; type: functional
[18] = test system: MCF7; experiment: Effect on EZH2 level in human MCF7 cells at 5 uM incubated for 3 days by immunofluorescence staining based analysis; type: functional, cell-based; conditions: time 3.0 day
[19] = molecular target: Alpha-2C adrenergic receptor (Homo sapiens) (UniProt P18825); experiment: Inhibition of Alpha2C receptor (unknown origin) at 10 uM by radioligand binding assay relative to control
[20] = molecular target: Histone-lysine N-methyltransferase EHMT1 (Homo sapiens, UniProt Q9H9B1); experiment: Inhibition of EHMT1 (unknown origin) using [3H-SAM] as substrate incubated for 1 hr by scintillation proximity assay
Sequence of Histone-lysine N-methyltransferase EHMT1 (Q9H9B1 whole entry, the tested form may be a part): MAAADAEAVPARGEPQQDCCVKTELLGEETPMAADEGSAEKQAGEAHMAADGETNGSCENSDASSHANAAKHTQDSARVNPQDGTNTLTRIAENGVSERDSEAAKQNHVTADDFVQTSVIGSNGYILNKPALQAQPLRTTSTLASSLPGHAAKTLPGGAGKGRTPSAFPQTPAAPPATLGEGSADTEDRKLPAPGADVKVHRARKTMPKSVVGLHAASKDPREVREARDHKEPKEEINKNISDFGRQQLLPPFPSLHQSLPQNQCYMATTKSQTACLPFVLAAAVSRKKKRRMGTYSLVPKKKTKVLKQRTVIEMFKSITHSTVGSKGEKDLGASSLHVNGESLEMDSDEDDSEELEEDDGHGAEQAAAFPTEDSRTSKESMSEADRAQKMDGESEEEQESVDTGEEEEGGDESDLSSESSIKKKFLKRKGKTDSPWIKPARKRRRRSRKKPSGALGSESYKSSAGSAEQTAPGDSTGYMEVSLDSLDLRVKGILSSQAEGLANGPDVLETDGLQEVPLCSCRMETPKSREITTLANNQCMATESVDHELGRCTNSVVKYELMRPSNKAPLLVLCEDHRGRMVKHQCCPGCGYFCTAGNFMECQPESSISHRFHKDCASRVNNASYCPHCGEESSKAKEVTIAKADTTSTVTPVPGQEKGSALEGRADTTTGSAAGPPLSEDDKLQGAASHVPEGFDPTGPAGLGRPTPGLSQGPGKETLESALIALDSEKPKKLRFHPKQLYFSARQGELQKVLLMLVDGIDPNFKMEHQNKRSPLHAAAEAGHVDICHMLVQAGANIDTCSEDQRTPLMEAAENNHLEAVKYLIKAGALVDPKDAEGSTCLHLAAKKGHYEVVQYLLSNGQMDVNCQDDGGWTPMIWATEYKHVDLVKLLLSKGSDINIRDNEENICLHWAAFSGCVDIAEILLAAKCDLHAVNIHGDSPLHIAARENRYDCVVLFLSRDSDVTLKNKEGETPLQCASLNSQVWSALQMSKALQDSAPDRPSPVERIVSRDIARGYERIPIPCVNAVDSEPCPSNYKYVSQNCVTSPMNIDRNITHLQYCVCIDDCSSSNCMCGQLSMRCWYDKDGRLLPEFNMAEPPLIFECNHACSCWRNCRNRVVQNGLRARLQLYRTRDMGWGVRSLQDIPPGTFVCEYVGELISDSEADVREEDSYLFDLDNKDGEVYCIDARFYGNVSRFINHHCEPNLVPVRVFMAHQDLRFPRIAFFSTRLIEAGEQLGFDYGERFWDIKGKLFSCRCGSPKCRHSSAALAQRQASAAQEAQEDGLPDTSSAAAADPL

[21] = molecular target: Tyrosine-protein kinase receptor TYRO3 (Homo sapiens) (UniProt Q06418); experiment: Inhibition of human cytoplasmic domain N-terminal GST tagged TYRO3 (453 to 890 end residues) expressed in baculovirus expression system using CSKtide as substrate at 10 uM by mobility shift assay relative to control
[22] = molecular target: Histone-lysine N-methyltransferase EHMT2 (Homo sapiens, UniProt Q96KQ7); experiment: Inhibition of G9a (unknown origin) using [3H-SAM] as substrate incubated for 1 hr by scintillation proximity assay
[23] = molecular target: Casein kinase I isoform epsilon (Homo sapiens) (UniProt P49674); experiment: Inhibition of human catalytic domain N-terminal GST tagged CK1epsilon (1 to 348 residues) expressed in baculovirus expression system using ck-tide as substrate at 10 uM by mobility shift assay relative to control
Sequence of Casein kinase I isoform epsilon (Homo sapiens) (P49674 whole entry, looked up, the tested form may be a part, canonical isoform): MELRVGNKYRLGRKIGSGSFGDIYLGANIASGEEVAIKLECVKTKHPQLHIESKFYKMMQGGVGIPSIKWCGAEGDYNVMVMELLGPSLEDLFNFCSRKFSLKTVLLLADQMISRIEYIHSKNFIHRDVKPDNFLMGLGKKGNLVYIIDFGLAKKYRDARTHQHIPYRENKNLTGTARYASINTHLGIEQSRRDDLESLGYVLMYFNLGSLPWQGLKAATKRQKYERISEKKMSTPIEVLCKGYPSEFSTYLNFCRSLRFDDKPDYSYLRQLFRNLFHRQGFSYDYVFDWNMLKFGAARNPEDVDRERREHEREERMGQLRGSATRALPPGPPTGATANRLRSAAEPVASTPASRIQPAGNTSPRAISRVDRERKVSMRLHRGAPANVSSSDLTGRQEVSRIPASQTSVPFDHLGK

[24] = molecular target: Muscarinic acetylcholine receptor M4 (Homo sapiens) (UniProt P08173); experiment: Inhibition of M4 receptor (unknown origin) at 10 uM by radioligand binding assay relative to control
[25] = molecular target: 5-hydroxytryptamine receptor 2A (Homo sapiens) (UniProt P28223); experiment: Inhibition of 5-HT2A receptor (unknown origin) at 10 uM by radioligand binding assay relative to control
[26] = molecular target: Histamine H1 receptor (Homo sapiens) (UniProt P35367); experiment: Inhibition of H1 receptor (unknown origin) at 10 uM by radioligand binding assay relative to control
Sequence of Histamine H1 receptor (Homo sapiens) (P35367 whole entry): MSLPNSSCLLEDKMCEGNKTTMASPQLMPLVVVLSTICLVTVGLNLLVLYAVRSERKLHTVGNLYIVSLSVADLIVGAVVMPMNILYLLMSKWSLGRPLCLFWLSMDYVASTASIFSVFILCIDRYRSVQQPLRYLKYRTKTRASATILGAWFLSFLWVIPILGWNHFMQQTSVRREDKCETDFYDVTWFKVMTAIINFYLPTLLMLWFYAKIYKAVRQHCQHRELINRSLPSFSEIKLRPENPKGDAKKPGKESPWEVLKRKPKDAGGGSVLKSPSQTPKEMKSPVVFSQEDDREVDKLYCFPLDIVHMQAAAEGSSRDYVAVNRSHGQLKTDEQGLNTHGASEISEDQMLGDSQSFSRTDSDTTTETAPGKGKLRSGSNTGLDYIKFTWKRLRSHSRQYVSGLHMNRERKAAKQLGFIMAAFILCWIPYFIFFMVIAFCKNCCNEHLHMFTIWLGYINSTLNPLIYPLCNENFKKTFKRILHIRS

[27] = molecular target: Sigma non-opioid intracellular receptor 1 (Homo sapiens) (UniProt Q99720); experiment: Inhibition of Sigma1 receptor (unknown origin) at 10 uM by radioligand binding assay relative to control
[28] = molecular target: D(3) dopamine receptor (Homo sapiens) (UniProt P35462); experiment: Inhibition of dopamine D3 receptor (unknown origin) at 10 uM by radioligand binding assay relative to control
Sequence of D(3) dopamine receptor (Homo sapiens) (P35462 whole entry): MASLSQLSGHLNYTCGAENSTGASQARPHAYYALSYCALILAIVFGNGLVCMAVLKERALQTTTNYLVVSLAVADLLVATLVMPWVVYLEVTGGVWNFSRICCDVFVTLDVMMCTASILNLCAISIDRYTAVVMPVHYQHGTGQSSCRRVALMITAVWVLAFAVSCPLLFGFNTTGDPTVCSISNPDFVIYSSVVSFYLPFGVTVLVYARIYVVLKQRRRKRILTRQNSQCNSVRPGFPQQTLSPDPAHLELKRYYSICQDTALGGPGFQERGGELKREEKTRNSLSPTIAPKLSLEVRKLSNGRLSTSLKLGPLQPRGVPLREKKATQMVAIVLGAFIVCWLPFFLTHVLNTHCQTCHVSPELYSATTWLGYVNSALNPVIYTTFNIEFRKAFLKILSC

[29] = molecular target: Histone-lysine N-methyltransferase, H3 lysine-79 specific (Homo sapiens, UniProt Q8TEK3); experiment: Inhibition of DOT1L (unknown origin) using [3H-SAM] as substrate incubated for 1 hr by scintillation proximity assay
[30] = test system: DB; experiment: Antiproliferative activity against human DB cells assessed as reduction in cell viability at 100 to 5000 nM measured after 3 days by cell proliferation assay; type: functional, cell-based; conditions: dose 100-5000 nM, time 3.0 day

Work on CCCc1cc(C)[nH]c(=O)c1CNC(=O)c1cc(-c2ccc(N3CCN(C(C)C)CC3)nc2)cc2c1cnn2C(C)C yielded an inhibition [1] of -3%, an inhibition [2] of -4% and an inhibition [3] of 12%. For the same compound, the inhibition [4] was 31%, the inhibition [5] was 11% and the IC50 [6] was > 100 µM. For the same compound, the Activity [7] was “Non-Toxic”, the Activity [8] was “Active” and the inhibition [9] was 13%. The inhibition [10] was 5%, the inhibition [11] was -6% and the inhibition at 10 µM [12] was -4%. For the same compound, the inhibition [13] was -4%, the IC50 [14] was > 100 µM and the Ki [15] was 0.065 µM. For the same compound, the inhibition [16] was 5%, the Activity [17] was 100% and the Activity [18] was “inactive”. The inhibition [19] was 47%, the IC50 [20] was > 100 µM and the inhibition [21] was -1%. For the same compound, the IC50 [22] was > 100 µM, the inhibition [23] was -4% and the inhibition [24] was 21%. The inhibition [25] was 39%, the inhibition [26] was 16% and the inhibition [27] was 57%. The inhibition [28] was 28%, the IC50 [29] was > 100 µM and the Activity [30] was “inactive”.
